For 123 compounds, melting point results are on record in a melting point compilation (Tetko et al.).

A word on the melting point: it is the temperature, or range, at which the solid turns liquid. The compound `O=C(O)CC1c2ccccc2Oc2ccccc21` yielded a melting point of 153 to 155 °C. In turn, `CCCc1noc2ncc(C(=O)O)cc12` registered a melting point of 174 to 176 °C. Then `CC1(O)CCC(N)CC1` (stereo not drawn), with 89 to 91 °C.

With `CC(=O)Nc1cc(F)c(S(=O)(=O)Cl)cc1Cl`, the melting point is 163 to 165 °C. In turn, `O=C(O)c1ccc(Cc2nnc[nH]2)cc1` displayed a melting point of 219 to 221 °C. Then `O=C(O)CC(Br)C(=O)c1ccccc1` (stereo not drawn), with 128 to 130 °C.

`Nn1c(=O)[nH]c2ccccc2c1=O` yielded a melting point of 297 to 299 °C. Under `CC(c1ccccc1)n1c(S)nnc1-c1ccccc1` (stereo not drawn) stands 201 to 203 °C; under `O=S(=O)(Cl)c1ccc2c(c1)COC2`, 98 to 100 °C. Then `S=C(NCc1cccnc1)NCc1cccnc1`, with 157 to 159 °C; and `NC(=O)CNCCC1CCCCC1`, with 111 to 113 °C. `Cc1nc(-c2cccnc2)[nH]c(=O)c1CC(=O)O`: the melting point was 263 to 265 °C. Under `Sc1nnc(Cc2ccccc2)o1` stands 124 to 126 °C. In turn, `C/C(N)=C\C#N` gave a melting point of 4 to 6 °C. Then `O=c1[nH]c2ccc(C(F)(F)F)cc2c(=O)o1`, with 269 to 271 °C; and `Nc1nnc2ccccn12`, with 229 to 231 °C; and `Cc1ccccc1-n1c(S)nc2sc3c(c2c1=O)CCC(C)C3` (stereo not drawn), with 230 to 232 °C. For the compound `COC(=O)c1nc2ccccc2[nH]1`, the melting point was 189 to 191 °C. Then `Nc1ccc2c[nH]nc2c1`, with 204 to 206 °C; and `Cc1cccc(-c2nnc(N)[nH]2)n1`, with 206 to 208 °C; and `CCn1c(=O)n(CC(=O)O)c2ccccc21`, with 229 to 231 °C. Then `COc1ccc(-c2nn(-c3ccccc3)cc2CC(=O)O)cc1`, with 161 to 163 °C; and `NC1(C(=O)O)CCOc2ccccc21` (stereo not drawn), with 239 to 241 °C. Under `Cc1nn(Cc2cccc(Cl)c2)cc1C(=O)O` stands 167 to 169 °C. In turn, `O=C(O)Cn1ncc(=O)c2ccccc21` returned a melting point of 120 to 122 °C. Then `COc1ccnc(NN)n1`, with 119 to 121 °C; and `O=C(c1cccnc1)c1cccc(Cl)c1`, with 47 to 49 °C; and `O=C(O)C1COc2ccccc21` (stereo not drawn), with 101 to 103 °C. Then `O=C(O)c1sc2cc(Cl)cc(Cl)c2c1Cl`, with 248 to 250 °C; and `CSc1ccnc(C#N)c1`, with 66 to 68 °C.

`COC(=O)c1cc2cccc(Br)c2o1` gave a melting point of 76 to 78 °C. Compound `Cc1n[nH]c(-c2ccccn2)n1` returned a melting point of 167 to 169 °C.

In the case of `CCOc1ccc(F)c(C(=O)O)c1F`, the melting point fell in the range of 149 to 151 °C.

For `Cc1[nH]c2ccccc2c1C(=O)CBr`, the melting point fell in the range of 203 to 205 °C.

Compound `O=C1C(Br)CCN1c1cccc(Cl)c1` (stereo not drawn) registered a melting point of 89 to 91 °C. As for `CNC1(C(N)=O)CCCC1`, the melting point lay within 99 to 101 °C. Under `O=C(O)c1ccc2c(c1)COC2` stands 164 to 166 °C; under `O=C(O)CN1C(=O)CSc2ccccc21`, 151 to 153 °C; under `Cc1ccc(N)cc1S(=O)(=O)Nc1ccc(SC(F)F)cc1`, 227 to 230 °C.

In the case of `CC(Cl)C(=O)c1ccc(Br)cc1` (stereo not drawn), the melting point is 54 to 56 °C. For the compound `N#Cc1cc(N)cnc1N`, the melting point fell in the range of 129 to 131 °C. Under `Nc1ncnc(Nc2ccc(F)cc2)n1` stands 249 to 251 °C; under `Cc1cc(C(=O)CCl)c(C)n1-c1nccs1`, 85 to 95 °C. Under `Cc1cc(N)n(-c2ccccc2C(F)(F)F)n1` stands 102 to 104 °C. The compound `COC(=O)CCCc1csc(N)n1` gave a melting point of 69 to 71 °C. Under `O=C(O)C1(C(=O)NC2CC2)CCC1` stands 139 to 141 °C; under `NS(=O)(=O)c1ccccc1I`, 161 to 163 °C.

The compound `N#Cc1ccc(Oc2cccc(N)c2)cc1` gave a melting point of 86 to 88 °C. Then `Cc1nnc(N2CCCC2)c(C#N)c1C`, with 146 to 148 °C; and `Cc1ccc(Oc2ccc(N)cn2)cc1`, with 90 to 92 °C; and `Cc1sc(-n2cccc2)c(C(=O)O)c1C`, with 156 to 158 °C. Under `c1cc(-c2nnc[nH]2)ccn1` stands 225 to 227 °C; under `Cc1cc(C(=O)NCC(=O)O)c(C)o1`, 179 to 181 °C. Under `Cc1cc2ncc3c(n2n1)C(=O)OCC3` stands 200 to 202 °C; under `Cc1cc(F)ccc1-n1ccc(C(=O)O)n1`, 197 to 199 °C; under `CN1CCN(S(=O)(=O)c2ccc(N)cc2)CC1`, 231 to 233 °C. In turn, `O=C(O)C1CCN(C(=O)c2ccc(C(F)(F)F)cc2)CC1` registered a melting point of 162 to 164 °C.

For `O=Cc1ccc(F)c2cccnc12`, the melting point fell in the range of 113 to 115 °C.

In turn, `Cc1c[nH]c(=O)n1-c1ccccc1[N+](=O)[O-]` came in with a melting point of 209 to 211 °C. In turn, `O=C1OC(=O)c2cc([N+](=O)[O-])cc3cc([N+](=O)[O-])cc1c23` returned a melting point of 216 to 218 °C. Under `COc1ccccc1-n1c(C)nnc1SCC(=O)O` stands 169 to 171 °C; under `Cc1nc2n(c1CN1CCNCC1)CCCC2`, 111 to 113 °C; under `N#CCC(=O)c1ccc(OC(F)F)cc1`, 80 to 82 °C.

`O=C(O)c1cnn(-c2ccccc2)c1` came in with a melting point of 175 to 182 °C.

`O=C(O)CCCc1nc(-c2ccc(Cl)cc2)no1`: the melting point was in the range of 108 to 110 °C. Under `Cc1ncc2ccccn12` stands 46 to 48 °C; under `Cc1nc(-c2ccc(F)cc2)sc1C(C)O` (stereo not drawn), 113 to 115 °C; under `CC1CNC(=Nc2cccc3cccnc23)S1` (stereo not drawn), 92 to 94 °C. Then `CC(=O)N(c1nc(/C=C\C(=O)O)cs1)c1ccccc1F`, with 195 to 197 °C; and `O=C(O)C1CCCCC1c1nc2cc(Cl)ccc2[nH]1` (stereo not drawn), with 199 to 201 °C; and `NC(=O)c1cnn2c3c(cnc12)CCOC3=O`, with 289 to 291 °C. Compound `C#CCn1c2ccccc2c2ccccc21` had a melting point of 103 to 105 °C. Then `Nc1c(C(=O)O)ccnc1Br`, with 224 to 226 °C; and `CNc1cc(C(=O)OC)ccc1N`, with 79 to 81 °C; and `O=C(CC(=O)C(F)(F)F)c1ccncc1`, with 255 to 257 °C. The compound `Cc1cc(C)c2ncc(C(=O)O)c(O)c2c1` showed a melting point of 282 to 284 °C. Then `CN1CC(=O)N(Cc2ccc(C(N)=O)cc2N)C1=O`, with 187 to 189 °C; and `O=C(O)C1CCCN(C(=O)c2cccc3ccccc23)C1` (stereo not drawn), with 255 to 257 °C. Then `NS(=O)(=O)c1cnc(Cl)s1`, with 128 to 130 °C; and `N#Cc1ccc(N=C=S)cc1Cl`, with 75 to 77 °C; and `CCOC(=O)c1sc2cc(Cl)ccc2c1Cl`, with 75 to 77 °C. Then `COc1ccc(S(N)(=O)=O)cc1NC(C)=O`, with 217 to 219 °C; and `Cc1cccnc1CC(=O)C(F)(F)F`, with 121 to 123 °C.

The compound `CC(=O)c1ccc(Oc2ccc(C(=O)O)cc2)cc1` returned a melting point of 161 to 163 °C. Then `CCCC=C(C#N)C(=O)O`, with 96 to 98 °C; and `Cc1cc(=O)oc2ccc(OCC(=O)O)cc12`, with 153 to 155 °C; and `Cn1c(C=O)nc2ccccc21`, with 119 to 122 °C. On to `O=S(=O)(Cl)c1ccc(CCCl)cc1`, for which the melting point lay in the range of 53 to 55 °C. Under `CS(=O)(=O)c1cc([N+](=O)[O-])c(Cl)s1` stands 148 to 150 °C. Under `CC1CCCCN1Cc1ccc(N)cc1` (stereo not drawn) stands 54 to 56 °C; under `Nc1cnc(Cl)c(C(=O)O)c1`, 193 to 195 °C.

In turn, `Cc1cc(C)nc(-n2nccc2N)n1` had a melting point of 183 to 185 °C. Regarding `CC(C)(C)Sc1ccc(C(N)=S)cn1`, the melting point is 178 to 180 °C. Under `O=c1[nH]c(CNCc2ccccc2)nc2ccccc12` stands 139 to 141 °C; under `CC(C)(C)c1ccc(OCCCC(=O)O)cc1`, 53 to 55 °C; under `NC(=O)Cc1ccc(Cl)cc1`, 183 to 185 °C. Compound `O=C1CNC(=O)N1C1CC1` yielded a melting point of 144 to 146 °C. Then `O=[N+]([O-])c1ccc(N2CCNCC2)nc1`, with 128 to 130 °C; and `Nc1nc(-c2cccs2)ns1`, with 163 to 165 °C. Under `CS(=O)(=O)NC1CCC(O)CC1` (stereo not drawn) stands 149 to 151 °C; under `CCC(C(=O)O)c1cccc(C(F)(F)F)c1` (stereo not drawn), 41 to 43 °C; under `O=C(O)c1ccc(OCC(F)(F)F)nn1`, 143 to 145 °C. Under `O=C1CCc2ccc(Cl)cc21` stands 79 to 81 °C.

`Cc1nn(-c2ccccc2)c(Cl)c1CCl` came in with a melting point of 35 to 41 °C. Then `ClCc1cnoc1-c1ccc(Cl)cc1`, with 78 to 80 °C; and `O=c1ccc(S(=O)(=O)N2CCCCC2)c[nH]1`, with 239 to 241 °C. Then `Cc1nn(CCO)c(C)c1C=O`, with 67 to 69 °C; and `O=C(O)c1nc(-c2ccccc2)oc1C1CC1`, with 198 to 200 °C. Take `NC1(c2ccc(Br)cc2)CCOCC1`: the melting point lay within 85 to 87 °C. Then `CC(SC1=NS(=O)(=O)c2ccccc21)C(=O)O` (stereo not drawn), with 182 to 184 °C. Then `CCOc1ccc(CO)cc1OCC`, with 37 to 39 °C. In turn, `O=C(O)c1ccc(N2CCOCC2)c([N+](=O)[O-])c1` registered a melting point of 186 to 188 °C.

The compound `Nc1ncc(C=NO)s1` showed a melting point of 211 to 213 °C. Then `CCn1c(C)cc(C(=O)CCl)c1C`, with 89 to 91 °C; and `CC(C)(C)c1ccc(C(=O)Nc2ccc(O)cc2)cc1`, with 196 to 198 °C; and `CC1CCc2[nH]c3ccc(C(=O)O)cc3c2C1` (stereo not drawn), with 218 to 220 °C. On to `CCCc1cc(C(=O)O)sc1C`, for which the melting point was 94 to 96 °C. Under `O=Cc1cccc(Br)c1O` stands 51 to 55 °C; under `Cn1c(N)nc2c(F)cccc21`, 163 to 165 °C. Then `CS(=O)(=O)c1cccc(Cl)c1C(N)=O`, with 200 to 202 °C; and `COc1ccc(NC(=O)C(C)Cl)cc1OC` (stereo not drawn), with 109 to 111 °C. Then `Cc1c(CCC(=O)O)cnn1C`, with 139 to 141 °C. In the case of `N#Cc1ccc(S(=O)(=O)CCCl)cc1`, the melting point lay in the range of 116 to 118 °C.
